In ChEMBL document CHEMBL2010777, “Synthesis and evaluation of human phosphodiesterases (PDE) 5 inhibitor analogs as trypanosomal PDE inhibitors. Part 2. Tadalafil analogs” (Bioorg Med Chem Lett, 2012):

Target: T1, Class 1 phosphodiesterase PDEB1 (Trypanosoma brucei) (UniProt Q8WQX9)
T1 sequence (whole entry): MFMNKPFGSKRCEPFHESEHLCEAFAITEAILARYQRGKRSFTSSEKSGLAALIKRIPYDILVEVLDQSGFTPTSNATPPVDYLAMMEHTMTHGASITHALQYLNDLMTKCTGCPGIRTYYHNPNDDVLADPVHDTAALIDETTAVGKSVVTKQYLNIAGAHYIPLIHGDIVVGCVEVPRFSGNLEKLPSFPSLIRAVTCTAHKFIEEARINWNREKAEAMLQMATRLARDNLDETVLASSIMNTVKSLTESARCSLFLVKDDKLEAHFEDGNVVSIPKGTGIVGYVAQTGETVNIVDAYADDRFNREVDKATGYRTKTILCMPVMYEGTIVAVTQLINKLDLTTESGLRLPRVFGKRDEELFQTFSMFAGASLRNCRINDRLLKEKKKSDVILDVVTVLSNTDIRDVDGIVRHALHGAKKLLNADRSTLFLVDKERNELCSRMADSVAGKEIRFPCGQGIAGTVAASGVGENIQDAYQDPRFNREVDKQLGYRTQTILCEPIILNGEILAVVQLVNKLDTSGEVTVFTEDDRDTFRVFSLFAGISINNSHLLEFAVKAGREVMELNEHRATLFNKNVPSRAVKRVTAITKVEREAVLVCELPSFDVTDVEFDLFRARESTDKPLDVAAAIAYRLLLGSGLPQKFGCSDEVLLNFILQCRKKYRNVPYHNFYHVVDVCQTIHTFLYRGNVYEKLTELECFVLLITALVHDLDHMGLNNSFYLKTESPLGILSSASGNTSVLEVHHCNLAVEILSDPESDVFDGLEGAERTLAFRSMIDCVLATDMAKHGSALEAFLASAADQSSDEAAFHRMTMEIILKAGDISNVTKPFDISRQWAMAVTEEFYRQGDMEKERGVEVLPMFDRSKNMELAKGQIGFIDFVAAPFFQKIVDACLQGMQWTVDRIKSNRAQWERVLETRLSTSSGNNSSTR
Experiment: Inhibition of Trypanosoma brucei PDEB1 using cAMP as substrate at 10 uM preincubated for 10 mins prior substrate addition by spectrophotometry

inhibition | Structure (SMILES)
6.09% | CN1CC(=O)N2C(CNCc3cccnc3)c3[nH]c4ccccc4c3C[C@@H]2C1=O (stereo partly drawn)
6.9% | CN1CC(=O)N2[C@H](c3ccc4c(c3)OCO4)c3c(c4ccccc4n3C)C[C@@H]2C1=O
11.8% | CN1CC(=O)N2[C@H](c3ccc4c(c3)OCO4)c3[nH]c4ccc(Br)cc4c3C[C@@H]2C1=O
0% | Cc1n[nH]cc1C(=O)NCC1c2[nH]c3ccccc3c2C[C@@H]2C(=O)N(C)CC(=O)N12 (stereo partly drawn)
38.8% | CN1CC(=O)N2[C@@H](c3ccc4c(c3)OCO4)c3[nH]c4ccccc4c3C[C@@H]2C1=O
71.8% | CN1CC(=O)N2[C@@H](c3ccc4c(c3)OCO4)c3[nH]c4ccc(-c5ccn[nH]5)cc4c3C[C@@H]2C1=O
0% | CC(=O)NCC1c2[nH]c3ccccc3c2C[C@@H]2C(=O)N(C)CC(=O)N12 (stereo partly drawn)
11.6% | CN1CC(=O)N2[C@@H](c3ccc4c(c3)OCO4)c3[nH]c4ccc(Br)cc4c3C[C@@H]2C1=O
19.7% | CN1CC(=O)N2[C@@H](c3ccc4c(c3)OCO4)c3c(c4ccccc4n3C)C[C@@H]2C1=O
21.2% | CN1CC(=O)N2C(CNC(=O)OCc3ccccc3)c3[nH]c4ccccc4c3C[C@@H]2C1=O (stereo partly drawn)

Structure (SMILES) | inhibition
NC(=O)[C@H]1Cc2c([nH]c3ccccc23)C(c2cccnc2)N1 (stereo partly drawn) | 22.6%

Test system: not listed separately
Experiment: Solubility of the compound at higher concentration
Assay type: physicochemical

solubility | Structure (SMILES)
Insoluble | CN1CC(=O)N2[C@@H](c3ccc4c(c3)OCO4)c3[nH]c4ccc(-c5ccn[nH]5)cc4c3C[C@@H]2C1=O

Target: T1, Class 1 phosphodiesterase PDEB1 (Trypanosoma brucei)
Experiment: Inhibition of Trypanosoma brucei PDEB1 using cAMP as substrate at 100 uM preincubated for 10 mins prior substrate addition by spectrophotometry

inhibition | Structure (SMILES)
0% | CN1CC(=O)N2[C@H](c3ccc4c(c3)OCO4)c3[nH]c4ccccc4c3C[C@@H]2C1=O
9.4% | CN1CC(=O)N2C(c3cccnc3)c3[nH]c4ccccc4c3C[C@@H]2C1=O (stereo partly drawn)
19.5% | NC(=O)[C@H]1Cc2c([nH]c3ccccc23)[C@@H](c2ccc3c(c2)OCO3)N1
0% | NC(=O)[C@H]1Cc2c([nH]c3ccccc23)[C@H](c2ccc3c(c2)OCO3)N1
13.3% | CC1NC(C(N)=O)Cc2c1[nH]c1ccccc21 (stereo not drawn)
17% | CC(=O)N1CCc2c([nH]c3ccccc23)C1c1ccc2c(c1)OCO2 (stereo not drawn)
